Laboratory results: patent US20130115522A1, “Manufacture of LiPO2F2” (SOLVAY SA, priority 2010, published 2013)

Assay: Solubility of LiPO2F2 (and by-product salts) in organic solvents
Assay type: physicochemical
Text: If it is desired to isolate LiPO2F2 and Li2PO3F from any LiF, polar aprotic solvents can be applied. For example, dialkyl carbonates are suitable for this purpose. Other solvents are acetone, isopropanol, tetrahydrofurane, ethyl acetate, acetonitrile, and diethyl carbonate. If it is desired to isolate selectively LiPO2F2, propylene carbonate was identified as very suitable solvent because LiPO2F2 is soluble therein, and Li2PO3F and also LiF are not. Other very suitable solvents are diethyl carbonate, a mixture of dimethyl carbonate and propylene carbonate, acetonitrile, dimethoxyethane and acetone. The solubility of LiPO2F2 in these solvents at ambient temperature is compiled in the following table 1.
Under inert gas (nitrogen), pure LiPO2F2 was dissolved in propylene carbonate at about 20° C. such that a solution is obtained comprising about 2.75% by weight of LiPO2F2.
Under inert gas (nitrogen), pure LiPO2F2 was dissolved in the respective solvent or solvent mixture at about 20° C. such that a solution containing the amounts of dissolved LiPO2F2 given in the following table 3 were achieved. The data for solution No. 1 was taken from example 4, the data for solutions No. 2 to 6 of table 3 correspond to those of table 1.

Question: What does the source list for `[F-].[Li+]` [LiF]?
Answer: Solubility in acetone (in words) (acetone): very low solubility; Solubility in dimethoxyethane (in words) (dimethoxyethane): at most in neglectable amounts; Solubility in dimethyl carbonate, propylene carbonate and mixtures thereof (in words) (dimethyl carbonate, propylene carbonate and mixtures thereof): at most in neglectable amounts; Solubility in propylene carbonate (in words) (propylene carbonate): are not
